Columns and labels:
[1] = test system: smallflower umbrella sedge; experiment: Test C flooded paddy test; format: in vivo, Cyperus difformis; details: for Plant response rating, Sedge, Umbrella: 500 g ai/ha, visual rating after 12 to 14 days
[2] = test system: blackgrass; experiment: Test B postemergence herbicide test; format: in vivo, Alopecurus myosuroides; details: scale 0 (no effect) to 100 (complete control); for Blackgrass plant response rating: postemergence, visual rating
Procedure, shortened: (§1)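 Treated at 2-leaf (paddy) or 1–4-leaf, 2–18 cm (postemergence); greenhouse 13–15 d; visual score vs control, 0 none to 100 complete control; dash = not tested.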

[3] = test system: ducksalad; experiment: Test B flooded paddy test; format: in vivo, Heteranthera limosa; details: 1000 g ai/ha, visual rating, scale 0 to 100 (0 no effect, 100 complete control), 13 to 15 days
Procedure, shortened: as §1

[4] = test system: lambsquarters; experiment: Test B pre-/postemergence herbicide test; format: in vivo, Chenopodium album; details: for Lambsquarters plant response rating: postemergence
Procedure, shortened: (§2)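 Seeds were planted and treated preemergence with compounds formulated in a non-phytotoxic solvent mixture containing surfactant, while plants at the 1- to 4-leaf stage (2 to 18 cm) received postemergence sprays. Flooded paddy plants were grown to the 2-leaf stage. After 13 to 15 days in a greenhouse, injury was visually rated 0–100 against untreated controls.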

[5] = test system: small flower umbrella sedge; experiment: Test B flooded paddy test; format: in vivo, Cyperus difformis; details: 1000 g ai/ha, visual rating, scale 0 to 100 (0 no effect, 100 complete control), 13 to 15 days
Procedure, shortened: as §1

[6] = test system: wheat; experiment: Test B postemergence herbicide test; format: in vivo, Triticum aestivum; design: key to Wheat plant response rating: 0 = no effect, 100 = complete control; details: scale 0 (no effect) to 100 (complete control); for Wheat plant response rating: postemergence, visual rating
Procedure, shortened: as §1

[7] = test system: wild oat; experiment: Test B postemergence herbicide test; format: in vivo, Avena fatua; details: scale 0 (no effect) to 100 (complete control); for Oat, Wild plant response rating: postemergence, visual rating
Procedure, shortened: as §1

[8] = test system: large crabgrass; experiment: Test B pre-/postemergence herbicide test; format: in vivo, Digitaria sanguinalis
Procedure, shortened: as §2

[9] = test system: rice; experiment: Test C flooded paddy test; format: in vivo, Oryza sativa; details: for Plant response rating, Rice: 500 g ai/ha, visual rating after 12 to 14 days
Procedure, shortened: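 Plants were grown to the 1- to 4-leaf stage (2–18 cm) and then treated postemergence, or grown to the 2-leaf stage for the flooded paddy test. They were held in a greenhouse for 12 to 14 days and then scored by eye against controls, where 0 is no effect and 100 is complete control.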

[10] = test system: barnyardgrass; experiment: Test B flooded paddy test; format: in vivo, Echinochloa crus-galli; details: 1000 g ai/ha, visual rating, scale 0 to 100 (0 no effect, 100 complete control), 13 to 15 days
Procedure, shortened: as §1

[11] = test system: rice; experiment: Test B flooded paddy test; format: in vivo, Oryza sativa; details: 1000 g ai/ha, visual rating, scale 0 to 100 (0 no effect, 100 complete control), 13 to 15 days
Procedure, shortened: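 Visual ratings, 0 (no effect) to 100 (complete control), made versus controls after 13–15 d greenhouse. Paddy plants treated at 2-leaf stage; postemergence plants at 1- to 4-leaf stage, 2–18 cm tall.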

[12] = test system: velvetleaf; experiment: Test B pre-/postemergence herbicide test; format: in vivo, Abutilon theophrasti; details: for Velvetleaf plant response rating: postemergence
Procedure, shortened: as §2

[13] = test system: giant foxtail; experiment: Test B pre-/postemergence herbicide test; format: in vivo, Setaria faberi
Procedure, shortened: as §2

[14] = test system: Surinam grass; experiment: Test B pre-/postemergence herbicide test; format: in vivo, Urochloa decumbens; details: for Surinam Grass plant response rating: postemergence
Procedure, shortened: as §2

[15] = test system: corn; experiment: Test B pre-/postemergence herbicide test; format: in vivo, Zea mays
Procedure, shortened: as §2

[16] = test system: barnyardgrass; experiment: Test C flooded paddy test; format: in vivo, Echinochloa crus-galli; details: for Plant response rating, Barnyardgrass: 500 g ai/ha, visual rating after 12 to 14 days
Procedure, shortened: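 After a postemergence application at 1 to 4 leaves (plants 2–18 cm high), or at 2 leaves for barnyardgrass in flooded paddy, plants stayed in the greenhouse for 12 to 14 days. Damage was then judged visually relative to control plants, with 100 indicating complete control.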

[17] = test system: pigweed; experiment: Test B pre-/postemergence herbicide test; format: in vivo, Amaranthus retroflexus; details: for Pigweed plant response rating: postemergence
Procedure, shortened: as §2

[18] = test system: morningglory; experiment: Test B pre-/postemergence herbicide test; format: in vivo, Ipomoea coccinea; details: for Morningglory plant response rating: postemergence
Procedure, shortened: (§3)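 Herbicidal effect was judged by eye on a 0–100 scale after plants stood 13 to 15 days in the greenhouse following pre- or postemergence treatment with surfactant-containing formulations.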

[19] = test system: ducksalad; experiment: Test C flooded paddy test; format: in vivo, Heteranthera limosa; details: for Plant response rating, Ducksalad: 500 g ai/ha, visual rating after 12 to 14 days
[20] = test system: barnyardgrass; experiment: Test B pre-/postemergence herbicide test; format: in vivo, Echinochloa crus-galli
Procedure, shortened: as §3

[21] = test system: rice; experiment: Test B pre-/postemergence herbicide test; format: in vivo, Oryza sativa; details: preemergence
Procedure, shortened: as §2

[22] = test system: cocklebur; experiment: Test B pre-/postemergence herbicide test; format: in vivo, Xanthium strumarium
Procedure, shortened: as §3

[23] = 62 g ai/ha, scale 0 to 100 (0 no effect, 100 complete control)
[24] = 125 g ai/ha, scale 0 to 100 (0 no effect, 100 complete control)
[25] = 250 g ai/ha, scale of 0 to 100, 0 is no effect, 100 is complete control
[26] = scale 0 to 100 (0 no effect, 100 complete control)
[27] = 125 g ai/ha, 0 = no effect, 100 = complete control, preemergence
[28] = 500 g ai/ha, visual rating, 0 = no effect, 100 = complete control, preemergence
[29] = 125 g ai/ha, visual rating, scale 0 (no effect) to 100 (complete control)
[30] = 500 g ai/ha, visual rating, scale 0 (no effect) to 100 (complete control)
[31] = postemergence, 125 g ai/ha, visual rating, scale 0 (no effect) to 100 (complete control)
[32] = postemergence, 500 g ai/ha, visual rating, scale 0 (no effect) to 100 (complete control)
[33] = 125 g ai/ha, scale of 0 to 100, 0 is no effect, 100 is complete control
[34] = Postemergence, 500 g ai/ha, visual rating after 13 to 15 days
[35] = Postemergence, 500 g ai/ha, visual rating after 13 to 15 days, scale 0 (no effect) to 100 (complete control)
[36] = preemergence, 125 g ai/ha, 0 to 100 scale, 0 is no effect, 100 is complete control
[37] = Preemergence, 500 g ai/ha, scale 0 to 100

CCc1nc(C(C)(C)C)sc1C(=O)Nc1cccc(C(=O)N(C)CC)c1 [Compound 229]
40: Sedge, Umbrella plant response rating [1, 24] | Wheat plant response rating ([6]; 500 g ai/ha) | Crabgrass, Large plant response rating (0 to 100 scale) [8, 27] | Velvetleaf plant response rating (0 to 100 scale) [12, 27] | Surinam Grass plant response rating (0 to 100 scale) [14, 27] | Plant response rating, Corn [15, 28] | Barnyardgrass plant response rating [16, 23] | Plant response rating, Cocklebur [22, 28]
75: Barnyardgrass plant response rating [16, 25]
85: Plant response rating, Ducksalad [19, 26]
60: Velvetleaf plant response rating [12, 29] | Pigweed plant response rating [17, 29]
45: Barnyardgrass plant response rating [16, 24]
35: Rice plant response rating [9, 23] | Rice plant response rating [9, 24]
20: Crabgrass, Large plant response rating [8, 32] | Surinam Grass plant response rating [14, 30] | Corn plant response rating [15, 32] | Plant response rating, Morningglory [18, 28] | Barnyardgrass plant response rating [20, 31] | Cocklebur plant response rating [22, 31]
90: Ducksalad plant response rating [3] | Lambsquarters plant response rating (0 to 100 scale) [4, 27] | Plant response rating, Rice [9, 26] | Barnyardgrass plant response rating [10] | Rice plant response rating [11] | Plant response rating, Barnyardgrass [20, 28]
30: Sedge, Umbrella plant response rating [1, 23] | Blackgrass plant response rating ([2]; 125 g ai/ha) | Blackgrass plant response rating ([2]; 500 g ai/ha) | Wheat plant response rating ([6]; 125 g ai/ha) | Oat, Wild plant response rating ([7]; 125 g ai/ha) | Foxtail, Giant plant response rating [13, 31] | Rice plant response rating (0 to 100 scale) ([21]; 125 g ai/ha, 0 = no effect, 100 = complete control)
0: Ducksalad plant response rating [19, 23] | Ducksalad plant response rating [19, 24] | Cocklebur plant response rating (0 to 100 scale) [22, 27]
80: Sedge, Umbrella plant response rating [1, 25] | Plant response rating, Sedge, Umbrella [1, 26] | Lambsquarters plant response rating [4, 30] | Sedge, Umbrella plant response rating [5] | Rice plant response rating [9, 25] | Plant response rating, Foxtail, Giant [13, 28] | Plant response rating, Surinam Grass [14, 28] | Plant response rating, Barnyardgrass [16, 26] | Pigweed plant response rating [17, 30] | Ducksalad plant response rating [19, 25]
100: Plant response rating, Lambsquarters [4, 28] | Plant response rating, Crabgrass, Large [8, 28] | Plant response rating, Velvetleaf [12, 28] | Pigweed plant response rating (0 to 100 scale) [17, 27] | Plant response rating, Pigweed [17, 28]
50: Oat, Wild plant response rating ([7]; 500 g ai/ha) | Foxtail, Giant plant response rating (0 to 100 scale) [13, 27] | Foxtail, Giant plant response rating [13, 32] | Barnyardgrass plant response rating (0 to 100 scale) [20, 27] | Barnyardgrass plant response rating [20, 32]
10: Crabgrass, Large plant response rating [8, 31] | Surinam Grass plant response rating [14, 29] | Corn plant response rating (0 to 100 scale) [15, 27] | Corn plant response rating [15, 31] | Morningglory plant response rating (0 to 100 scale) [18, 27] | Morningglory plant response rating [18, 29]
70: Lambsquarters plant response rating [4, 29] | Velvetleaf plant response rating [12, 30] | Morningglory plant response rating [18, 30] | Plant response rating, Rice ([21]; 500 g ai/ha, visual rating, 0 = no effect, 100 = complete control) | Cocklebur plant response rating [22, 32]

CCOC(=O)c1cc(NC(=O)c2cc(C(C)(C)C)nn2CC)c(F)cc1OC [Compound 76]
70: Barnyardgrass plant response rating [10] | Plant response rating, Surinam Grass [14, 36] | Barnyardgrass plant response rating [16, 33]
40: Plant response rating, Oat, Wild [7, 34] | Plant response rating, Velvetleaf [12, 35] | Velvetleaf plant response rating [12, 29] | Plant response rating, Foxtail, Giant [13, 35] | Cocklebur plant response rating [22, 37] | Cocklebur plant response rating [22, 31]
10: Blackgrass plant response rating ([2]; 125 g ai/ha) | Crabgrass, Large plant response rating [8, 31] | Corn plant response rating [15, 31] | Plant response rating, Morningglory [18, 35] | Morningglory plant response rating [18, 29] | Plant response rating, Morningglory [18, 36] | Barnyardgrass plant response rating [20, 31]
85: Sedge, Umbrella plant response rating [1, 33] | Sedge, Umbrella plant response rating [1, 25] | Rice plant response rating [9, 25]
50: Plant response rating, Blackgrass [2, 34] | Plant response rating, Lambsquarters [4, 36] | Corn plant response rating [15, 37] | Barnyardgrass plant response rating [16, 23] | Ducksalad plant response rating [19, 33] | Plant response rating, Rice ([21]; 125 g ai/ha, 0 to 100 scale, 0 is no effect, 100 is complete control)
100: Ducksalad plant response rating [3] | Foxtail, Giant plant response rating [13, 37] | Plant response rating, Pigweed [17, 35] | Pigweed plant response rating [17, 29] | Plant response rating, Pigweed [17, 36] | Barnyardgrass plant response rating [20, 37]
90: Plant response rating, Sedge, Umbrella [1, 26] | Crabgrass, Large plant response rating [8, 37] | Plant response rating, Rice [9, 26] | Plant response rating, Foxtail, Giant [13, 36] | Plant response rating, Barnyardgrass [16, 26] | Plant response rating, Cocklebur [22, 35]
60: Plant response rating, Lambsquarters [4, 35] | Sedge, Umbrella plant response rating [5] | Rice plant response rating [11]
20: Wheat plant response rating ([6]; 125 g ai/ha) | Plant response rating, Crabgrass, Large [8, 35] | Foxtail, Giant plant response rating [13, 31] | Plant response rating, Surinam Grass [14, 35] | Surinam Grass plant response rating [14, 29] | Plant response rating, Barnyardgrass [20, 35]
80: Sedge, Umbrella plant response rating [1, 23] | Plant response rating, Crabgrass, Large [8, 36] | Rice plant response rating [9, 33] | Barnyardgrass plant response rating [16, 25] | Plant response rating, Ducksalad [19, 26] | Plant response rating, Barnyardgrass [20, 36]
75: Rice plant response rating [9, 23] | Ducksalad plant response rating [19, 25]
45: Ducksalad plant response rating [19, 23]
30: Lambsquarters plant response rating [4, 29] | Plant response rating, Wheat [6, 34] | Oat, Wild plant response rating ([7]; 125 g ai/ha) | Plant response rating, Velvetleaf [12, 36] | Plant response rating, Corn [15, 35] | Plant response rating, Corn [15, 36]
